From patent US9315475B2 (MERCK SHARP & DOHME CORP., priority 2011, dated 2016)

These compounds were tested against T1, wildtype HIV-1 protease (Human immunodeficiency virus type 1 group M subtype B, UniProt P04585) (assay: Assay for inhibition of microbial expressed HIV protease (Pepcleav)). Settings: wild type HIV-1 protease expressed in E. coli, peptide substrate, pH 5.5; mean of at least two independent experiments; read-out: Pepcleav.
T1 construct: the wildtype HIV-1 protease (which was expressed in Escherichia coli); made in house; host or cells: Escherichia coli
Format: biochemical
Protocol: Assay for Inhibition of Microbial Expressed HIV Protease (“Pepcleav”)
Studies of the inhibition of the wildtype HIV-1 protease (which was expressed in Escherichia coli) were carried out with a peptide substrate [Val-Ser-Gln-Asn-(βnaphthyl)Ala-Pro-Ile-Val (SEQ ID NO:1)]. The inhibitor is first preincubated with the HIV-1 protease (wild type) enzyme in assay buffer (50 mM sodium acetate, pH 5.5, 100 mM NaCl, and 0.1% BSA) for 30 minutes at room temperature. Substrate is added to 400 micromolar in a total volume of 20 microliters containing 20 picomolar HIV-1 protease (final) and the reaction is incubated for 1 hour at 30° C. The reaction is quenched with the addition of formic acid and indinavir to 0.012% and 150 nM final concentrations, respectively. The product formation is determined after separation of product and substrate on a Zorbax Eclipse XDB-C 18 column connected to an API 4000 mass spectrometer (Applied Biosystems) with multiple reaction monitoring (transitions were 644.5/428.9 and 615.4/422.2 (M1/M3) for product and indinavir respectively). The extent of inhibition of the reaction is determined from the peak area of the products.

Row | SMILES | IC50
1 | COC(=O)N[C@H](C(=O)Nc1cccc(F)c1CC[C@@H]1CN[C@H](COC(=O)NCC(F)(F)F)CO1)[C@H](c1ccc(F)cc1)c1cccc(OC)c1 [Example 306, (βR)-4-fluoro-N-(3-fluoro-2-{2-[(2R, 5S)-5-({[(2,2,2-trifluoroethyl)carbamoyl]oxy}methyl)morpholin-2-yl]ethyl}phenyl)-Nα-(methoxy-carbonyl)-β-(3-methoxyphenyl)-L-phenylalaninamide] | 170 nM
2 | COC(=O)N[C@H](C(=O)Nc1ccccc1CC[C@@H]1CN[C@H](CNC(=O)c2cccnn2)CO1)C(c1ccccc1)c1ccccc1 [Example 54, methyl N-[(1S)-1-benzhydryl-2-oxo-2-[[2-[2-[(2R,5R)-5-[(pyridazine-3-carbonyl-amino)methyl]morpholin-2-yl]ethyl]phenyl]amino]ethyl] carbamate] | 26 nM
3 | COC(=O)N[C@H](C(=O)Nc1ccccc1CC[C@@H]1CN[C@H](COC(=O)N2CCCC2)CO1)C(c1ccccc1)c1ccccc1 [Example 27, [(3S,6R)-6-[2-[2-[[(2S)-2-(methoxycarbonylamino)-3,3-diphenyl-propanoyl]amino]phenyl]ethyl]morpholin-3-yl]methyl pyrrolidine-1-carboxylate] | 180 nM
4 | N[C@H](C(=O)Nc1cncc(F)c1CC[C@@H]1CN[C@H](COC(=O)NC2(c3ccncc3)CCC2)CO1)C(c1ccc(F)cc1)c1ccc(F)cc1 [Example 194, 4-fluoro-β-(4-fluorophenyl)-N-(5-fluoro-4-{2-[(2R,5S)-5-({[(1-pyridin-4-ylcyclobutyl)carbamoyl]oxy}methyl)morpholin-2-yl]ethyl}pyridin-3-yl)-L-phenylalaninamide] | 100 nM
5 | COC(=O)N[C@H](C(=O)Nc1ccccc1CC[C@@H]1CN[C@H](COC(=O)NC2CCc3ccccc32)CO1)C(c1ccccc1)c1ccccc1 (stereo partly drawn) [Example 15, N-(2-{2-[(2R,5S)-5-{[(2,3-dihydro-1H-inden-1-ylcarbamoyl)oxy]methyl}morpholin-2-yl]ethyl}phenyl)-Nα-(methoxycarbonyl)-β-phenyl-L-phenylalaninamide] | 4.1 nM
6 | COC(=O)N[C@H](C(=O)Nc1ccccc1CC[C@@H]1CN[C@H](CNC(=O)Nc2ccccc2)CO1)C(c1ccccc1)c1ccccc1 [Example 40, N-α-(methoxycarbonyl)-β-phenyl-N-(2-{2-[(2R,5R)-5-{[(phenylcarbamoyl)amino]methyl}morpholin-2-yl]ethyl}phenyl)-L-phenylalaninamide] | 52 nM
7 | COC(=O)N[C@H](C(=O)Nc1ccccc1CC[C@@H]1CN[C@H](CCc2ccccc2NC(=O)CCc2ccccc2)CO1)C(c1ccccc1)c1ccccc1 [Example 71, methyl N-[(1S)-1-benzhydryl-2-oxo-2-[[2-[2-[(2R,5R)-5-[2-[2-(3-phenylpropanoylamino)phenyl]ethyl]morpholin-2-yl]ethyl]phenyl]amino]ethyl]carbamate] | 1.3 nM
8 | COC(=O)N[C@H](C(=O)Nc1ccccc1CC[C@@H]1CN[C@H](COC(=O)NCc2cccnc2)CO1)C(c1ccccc1)c1ccccc1 [Example 20, methyl N-[(1S)-1-benzhydryl-2-oxo-2-[[2-[2-[(2R,5S)-5-(3-pyridylmethylcarbamoyloxymethyl)morpholin-2-yl]ethyl]phenyl]amino]ethyl]carbamate] | 78 nM
9 | COC(=O)N[C@H](C(=O)Nc1ccccc1CC[C@@H]1CN[C@H](CNC(=O)c2cc(-c3ccccn3)[nH]n2)CO1)C(c1ccccc1)c1ccccc1 [Example 60, methyl N-[(1S)-1-benzhydryl-2-oxo-2-[[2-[2-[(2R,5R)-5-[[[5-(2-pyridyl)-1H-pyrazole-3-carbonyl]amino]methyl]morpholin-2-yl]ethyl]phenyl]amino]ethyl] carbamate] | 72 nM
10 | COC(=O)N[C@H](C(=O)Nc1ccccc1CC[C@@H]1CN[C@H](COC(=O)NC2CCC2)CO1)C(c1ccccc1)c1ccccc1 [Example 23, methyl N-[(1S)-1-benzhydryl-2-[[2-[2-[(2R,5S)-5-(cyclobutylcarbamoyloxymethyl)morpholin-2-yl]ethyl]phenyl]amino]-2-oxo-ethyl]carbamate] | 80 nM
11 | COC(=O)N[C@H](C(=O)Nc1ccccc1CC[C@@H]1CN[C@H](CO)CO1)C(c1ccccc1)c1ccccc1 [Example 61, N-(2-{2-[(2R,5R)-5-(hydroxymethyl)morpholin-2-yl]ethyl}phenyl)-Nα-(methoxycarbonyl)-β-phenyl-L-phenylalaninamide] | 160 nM
12 | COC(=O)N[C@H](C(=O)Nc1ccccc1CC[C@@H]1CN[C@H](COC(=O)N[C@H]2c3ccccc3C[C@H]2O)CO1)C(c1ccccc1)c1ccccc1 [Example 14, N-[2-(2-{(2R,5S)-5-[({[(1S,2R)-2-hydroxy-2,3-dihydro-1H-inden-1-yl]carbamoyl}oxy)methyl]morpholin-2-yl}ethyl)phenyl]-Nα-(methoxycarbonyl)-β-phenyl-L-phenylalaninamide] | 17 nM
13 | COC(=O)N[C@H](C(=O)Nc1ccccc1CC[C@@H]1CN[C@H](COC(=O)NCC(F)(F)F)CO1)C(c1ccccc1)c1ccccc1 [Example 17, methyl N-[(1S)-1-benzhydryl-2-oxo-2-[[2-[2-[(2R,5S)-5-(2,2,2-trifluoroethylcarbamoyloxymethyl)morpholin-2-yl]ethyl]phenyl]amino]ethyl]carbamate] | 27 nM
14 | N[C@@H](Cc1cccc2ccccc12)C(=O)Nc1cncc(F)c1CC[C@@H]1CN[C@H](COC(=O)NCc2ccc(F)cc2)CO1 [Example 191, {(3S,6R)-6-[2-(3-{[(2S)-2-amino-3-naphthalen-1-ylpropanoyl]amino}-5-fluoropyridin-4-yl)ethyl]morpholin-3-yl}methyl (4-fluorobenzyl)carbamate (non-preferred name)] | 130 nM
15 | COC(=O)N[C@H](C(=O)Nc1ccccc1CC[C@@H]1CN[C@H](C(=O)O)CO1)C(c1ccccc1)c1ccccc1 [Example 1, (3S,6R)-6-[2-(2-{[N-(methoxycarbonyl)-β-phenyl-L-phenylalanyl]amino}phenyl)ethyl]morpholine-3-carboxylic acid] | 65 nM
16 | COC(=O)N[C@H](C(=O)Nc1ccccc1CC[C@@H]1CN[C@H](CNC(=O)OC2CCOC2)CO1)C(c1ccccc1)c1ccccc1 (stereo partly drawn) [Example 84, Nα-(methoxycarbonyl)-β-phenyl-N-(2-{2-[(2R,5R)-5-({[(tetrahydrofuran-3-yloxy)carbonyl]amino}methyl)morpholin-2-yl]ethyl}phenyl)-L-phenylalaninamide] | 670 nM
17 | N[C@H](C(=O)Nc1cncc(F)c1CC[C@@H]1CN[C@H](COC(=O)NCCN2CCCC2)CO1)C(c1ccc(F)cc1)c1ccc(F)cc1 [Example 233, 4-fluoro-β-(4-fluorophenyl)-N-(5-fluoro-4-{2-[(2R,5S)-5-({[(2-pyrrolidin-1-ylethyl)carbamoyl]oxy}methyl)morpholin-2-yl]ethyl}pyridin-3-yl)-L-phenylalaninamide] | 110 nM
18 | COC(=O)N[C@H](C(=O)Nc1ccccc1CC[C@@H]1CN[C@H](COC(=O)NCCN(C)C)CO1)C(c1ccccc1)c1ccccc1 [Example 28, methyl N-[(1S)-1-benzhydryl-2-[[2-[2-[(2R,5S)-5-(2-dimethylaminoethylcarbamoyloxymethyl)morpholin-2-yl]ethyl]phenyl]amino]-2-oxo-ethyl]carbamate] | 250 nM
